Laboratory results: article PMC12892976, “Alkylation-based optimization of antifungal FPPS inhibitors yields a potent, broad-spectrum lipophilic zoledronate derivative” (mBio, 2025)
Where two headings read alike, the source gives them in different places.

Tests used:
Candida albicans [1] = test: MIC/MFC broth microdilution (CLSI); assay type: cell-based; conditions: Candida albicans SC5314
Protocol: (§1) Antifungal susceptibility was determined by broth microdilution according to the CLSI guidelines described in M27-Ed4 ([16]). […] MFC was determined by back-plating drug-treated cultures from MIC broths onto SDA plates. The MFC was defined as the lowest concentration from which no colonies could be cultured.

[2] = test system: Cryptococcus deuterogattii; test: checkerboard drug interaction (FICI, MICc);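 as to all read-outs here: simplified diagonal checkerboard screen pairing antifungal drugs with FPPS inhibitors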; assay type: cell-based; conditions: C. deuterogattii; for INH FD (MIC-MICc fold decrease): fold decrease of inhibitor MIC
Protocol: (§2) Drug interactions between antifungals and FPPS inhibitors were investigated using a simplified checkerboard diagonal screening method ([45]). […] FICIs were determined according to the Loewe additivity model ([17]).

Aspergillus fumigatus [3] = test: MIC/MFC broth microdilution (CLSI); conditions: ATCC204305
Protocol: as §1

eight fungal species [4] = test: MIC/MFC summary across the eight fungal species of Table 1; assay type: cell-based
Protocol: The antifungal activity of these compounds was evaluated according to CLSI guidelines ([16]).

Aspergillus fumigatus [5] = test: checkerboard drug interaction (FICI, MICc); assay type: cell-based;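 also: simplified diagonal checkerboard screen pairing antifungals with FPPS inhibitors against Aspergillus fumigatus, with FICI calculated under the Loewe additivity model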
Protocol: as §2

Candida glabrata [6] = test: MIC/MFC broth microdilution (CLSI); conditions: Nakaseomyces glabratus, CBS138;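 also: broth microdilution following CLSI M27-Ed4, MFC taken as the lowest drug level yielding no growth once MIC wells were subcultured on SDA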
Protocol: as §1

Candida albicans [7] = test: checkerboard drug interaction (FICI, MICc);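 as to all read-outs here: antifungal plus FPPS inhibitor combinations on Candida albicans tested by a simplified diagonal checkerboard screen, with FICI calculated under the Loewe additivity model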; assay type: cell-based; conditions: C. albicans; for INH FD (MIC-MICc fold decrease): fold decrease of inhibitor MIC
Protocol: as §2

Saccharomyces cerevisiae [8] = test: MIC/MFC broth microdilution (CLSI); assay type: cell-based; conditions: Saccharomyces cerevisiae S288c
Protocol: as §1

Candida glabrata [9] = test: checkerboard drug interaction (FICI, MICc);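 as to all read-outs here: simplified diagonal checkerboard screen pairing antifungals with FPPS inhibitors, FICI calculated under the Loewe additivity model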; assay type: cell-based; conditions: C. glabrata; for INH FD (MIC-MICc fold decrease): fold decrease of inhibitor MIC
Protocol: as §2

Saccharomyces cerevisiae [10] = test: checkerboard drug interaction (FICI, MICc); assay type: cell-based; parameters: INH MICc / INH MICc (ITR:INH) / INH MICc (KET:INH) / INH MICc (FLC:INH): unit not given beside the values;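 also: simplified diagonal checkerboard screen pairing antifungals with FPPS inhibitors, FICI calculated under the Loewe additivity model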
[11] = test system: Cryptococcus deuterogattii; test: MIC/MFC broth microdilution (CLSI); conditions: Cryptococcus deuterogattii;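 also: broth microdilution per CLSI M27-Ed4. MFC is the lowest concentration yielding no colonies when MIC broths are subcultured onto SDA plates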
Protocol: as §1

Cryptococcus neoformans [12] = test: MIC/MFC broth microdilution (CLSI); conditions: Cryptococcus neoformans;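 also: susceptibility testing followed the CLSI M27-Ed4 broth microdilution document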
Protocol: as §1

Trichophyton rubrum [13] = test: MIC/MFC broth microdilution (CLSI); conditions: Trichophyton rubrum
Protocol: as §1

HEK-293T cells = test: MTT reduction cytotoxicity assay; assay type: cell-based; conditions: Homo sapiens, HEK-293T, 72 h, HEK-293T, MTT, 72 h; read-out: HEK IC50
Cryptococcus neoformans [14] = test: checkerboard drug interaction (FICI, MICc);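 as to all read-outs here: antifungal plus FPPS inhibitor pairs tested against Cryptococcus neoformans by simplified diagonal checkerboard screening, FICI computed under the Loewe additivity model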; assay type: cell-based; conditions: C. neoformans; for INH FD (MIC-MICc fold decrease): fold decrease of inhibitor MIC
Protocol: as §2

Trichophyton rubrum [15] = test: checkerboard drug interaction (FICI, MICc);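 also: simplified diagonal checkerboard screen pairing azole antifungals with FPPS inhibitors, FICI calculated under the Loewe additivity model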; assay type: cell-based; conditions: T. rubrum
Protocol: as §2

eight fungal species [16] = test: checkerboard interaction with azoles, summary across the eight species; assay type: cell-based; conditions: geometric mean MIC in combination with azoles
From the text: Synergy between lipophilic FPPS inhibitors and azole antifungals was investigated by determining the fractional inhibitory concentration index (FICI) (Fig. 2; Table S1 Fig. S1) ([17]). […]. Derivatives PLA9 and 11, and PDA9, 11, and 12 antagonized azoles in C. albicans, C. neoformans, and C. deuterogattii, yet were largely synergistic in C. glabrata and S. cerevisiae. […].

Aspergillus flavus [17] = test: checkerboard drug interaction (FICI, MICc);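 also: simplified diagonal checkerboard screen pairing azole antifungals with FPPS inhibitors, FICI calculated under the Loewe additivity model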; assay type: cell-based; parameters: INH MICc (KET:INH) / INH MICc (FLC:INH): unit not given beside the values; conditions: A. flavus
Aspergillus flavus [18] = test: MIC/MFC broth microdilution (CLSI); conditions: ATCC204304
Protocol: as §1

[19] = FLC:INH combination, MIC of the inhibitor in combination with FLC
[20] = FLC:INH combination, fold decrease of FLC MIC
[21] = ITR:INH combination, MIC of the inhibitor in combination with ITR
[22] = ITR:INH combination, fold decrease of ITR MIC
[23] = KET:INH combination, MIC of the inhibitor in combination with KET
[24] = KET:INH combination, fold decrease of KET MIC
[25] = Fractional Inhibitory Concentration Index, fluconazole + inhibitor
[26] = Fractional Inhibitory Concentration Index, itraconazole + inhibitor
[27] = Fractional Inhibitory Concentration Index, ketoconazole + inhibitor
[28] = MIC of the inhibitor in combination with fluconazole
[29] = MIC of the inhibitor in combination with itraconazole
[30] = MIC of the inhibitor in combination with ketoconazole
[31] = MIC-MICc fold decrease of fluconazole, negative = increase
[32] = MIC-MICc fold decrease of itraconazole, negative = increase
[33] = MIC-MICc fold decrease of ketoconazole, negative = increase
[34] = MIC-MICc fold decrease of the inhibitor, with fluconazole
[35] = MIC-MICc fold decrease of the inhibitor, with itraconazole
[36] = MIC-MICc fold decrease of the inhibitor, with ketoconazole

CCCCCCCCCCN1CCC[C@H]1C(=O)N[C@H](CC(=O)OC)C(=O)OC [dmPDA10]
1.84 µg/mL: IC50 (HEK-293T cells)
≥4: FICI (Candida glabrata [9]; FLC:INH combination) | FICI (Candida glabrata [9]; KET:INH combination) | FICI (FLC:INH) (Saccharomyces cerevisiae [10]; [25]) | FICI (FLC:INH) (Trichophyton rubrum [15]; [25]) | FICI (ITR:INH) (Trichophyton rubrum [15]; [26]) | FICI (KET:INH) (Trichophyton rubrum [15]; [27])
32 µg/mL: MFC (Candida albicans [1]) | MFC (Aspergillus fumigatus [3]) | MIC (Aspergillus fumigatus [3]) | MFC (Candida glabrata [6]) | MIC (Candida glabrata [6]) | MFC (Cryptococcus neoformans [12])
16: INH MICc [2, 19] | INH MICc [2, 21] | INH MICc (Candida glabrata [9]; [19]) | INH MICc (Candida glabrata [9]; [23]) | INH MICc (ITR:INH) (Saccharomyces cerevisiae [10]; [29]) | INH MICc (KET:INH) (Saccharomyces cerevisiae [10]; [30])
-2: INH FD (FLC:INH) (Aspergillus fumigatus [5]; [34]) | INH FD (KET:INH) (Aspergillus fumigatus [5]; [36]) | KET FD (MIC-MICc fold decrease) (Candida glabrata [9]; [24]) | FLC FD (FLC:INH) (Saccharomyces cerevisiae [10]; [31]) | ITR FD (ITR:INH) (Saccharomyces cerevisiae [10]; [32]) | INH FD (FLC:INH) (Saccharomyces cerevisiae [10]; [34])
8 µg/mL: MIC (Trichophyton rubrum [13])
20.7 µg/mL: MIC (eight fungal species [4]; geometric mean across eight species, read-out: GM fungal MIC) | MIC (eight fungal species [4]; read-out: Geometric mean MIC)
0.63: FICI (ITR:INH) (Aspergillus fumigatus [5]; [26]) | FICI (KET:INH) (Aspergillus flavus [17]; [27])
0.53: FICI ([2]; KET:INH combination)
0.75: FICI (Candida albicans [7]; ITR:INH combination) | FICI (Candida albicans [7]; KET:INH combination) | FICI (Cryptococcus neoformans [14]; FLC:INH combination) | FICI (Cryptococcus neoformans [14]; ITR:INH combination) | FICI (Cryptococcus neoformans [14]; KET:INH combination) | FICI (FLC:INH) (Aspergillus flavus [17]; [25])
3: FICI (Candida glabrata [9]; ITR:INH combination) | FICI (ITR:INH) (Saccharomyces cerevisiae [10]; [26])
> 128 µg/mL: MFC (Trichophyton rubrum [13])
64 µg/mL: MFC [11] | MFC (Aspergillus flavus [18]) | MIC (Aspergillus flavus [18])
4: FLC FD (MIC-MICc fold decrease) [2, 20] | KET FD (KET:INH) (Aspergillus fumigatus [5]; [33]) | INH MICc (Candida albicans [7]; [21]) | INH FD (MIC-MICc fold decrease) (Candida albicans [7]; ITR:INH combination) | INH MICc (Candida albicans [7]; [23]) | INH FD (MIC-MICc fold decrease) (Candida albicans [7]; KET:INH combination) | FLC FD (MIC-MICc fold decrease) (Cryptococcus neoformans [14]; [20]) | ITR FD (MIC-MICc fold decrease) (Cryptococcus neoformans [14]; [22]) | KET FD (MIC-MICc fold decrease) (Cryptococcus neoformans [14]; [24]) | ITR FD (ITR:INH) (Trichophyton rubrum [15]; [32]) | FLC FD (FLC:INH) (Aspergillus flavus [17]; [31])
< -4: INH FD (FLC:INH) (Trichophyton rubrum [15]; [34]) | INH FD (ITR:INH) (Trichophyton rubrum [15]; [35]) | INH FD (KET:INH) (Trichophyton rubrum [15]; [36])
2: ITR FD (MIC-MICc fold decrease) [2, 22] | INH FD (MIC-MICc fold decrease) ([2]; KET:INH combination) | INH MICc (ITR:INH) (Aspergillus fumigatus [5]; [29]) | ITR FD (ITR:INH) (Aspergillus fumigatus [5]; [32]) | INH FD (MIC-MICc fold decrease) (Candida albicans [7]; FLC:INH combination) | ITR FD (MIC-MICc fold decrease) (Candida albicans [7]; [22]) | KET FD (MIC-MICc fold decrease) (Candida albicans [7]; [24]) | INH FD (MIC-MICc fold decrease) (Candida glabrata [9]; ITR:INH combination) | INH FD (MIC-MICc fold decrease) (Cryptococcus neoformans [14]; FLC:INH combination) | INH FD (MIC-MICc fold decrease) (Cryptococcus neoformans [14]; ITR:INH combination) | INH FD (MIC-MICc fold decrease) (Cryptococcus neoformans [14]; KET:INH combination) | FLC FD (FLC:INH) (Trichophyton rubrum [15]; [31]) | KET FD (KET:INH) (Trichophyton rubrum [15]; [33]) | KET FD (KET:INH) (Aspergillus flavus [17]; [33]) | INH FD (FLC:INH) (Aspergillus flavus [17]; [34]) | INH FD (ITR:INH) (Aspergillus flavus [17]; [35])
32: KET FD (MIC-MICc fold decrease) [2, 24] | INH MICc (FLC:INH) (Aspergillus fumigatus [5]; [28]) | INH MICc (KET:INH) (Aspergillus fumigatus [5]; [30]) | INH MICc (FLC:INH) (Saccharomyces cerevisiae [10]; [28]) | INH MICc (FLC:INH) (Aspergillus flavus [17]; [28]) | INH MICc (ITR:INH) (Aspergillus flavus [17]; [29])
64: INH MICc (FLC:INH) (Trichophyton rubrum [15]; [28]) | INH MICc (ITR:INH) (Trichophyton rubrum [15]; [29]) | INH MICc (KET:INH) (Trichophyton rubrum [15]; [30])
45.3 µg/mL: Geometric mean MFC (eight fungal species [4]; across eight species) | MFC (eight fungal species [4]; across eight species, read-out: Geometric mean MFC)
1.13: FICI (KET:INH) (Saccharomyces cerevisiae [10]; [27])
14.7: GM fungal MICc (eight fungal species [16])
8: INH MICc [2, 23] | FLC FD (FLC:INH) (Aspergillus fumigatus [5]; [31]) | INH FD (ITR:INH) (Aspergillus fumigatus [5]; [35]) | INH MICc (Candida albicans [7]; [19]) | INH MICc (Candida glabrata [9]; [21]) | KET FD (KET:INH) (Saccharomyces cerevisiae [10]; [33]) | INH MICc (Cryptococcus neoformans [14]; [19]) | INH MICc (Cryptococcus neoformans [14]; [21]) | INH MICc (Cryptococcus neoformans [14]; [23]) | INH MICc (KET:INH) (Aspergillus flavus [17]; [30]) | INH FD (KET:INH) (Aspergillus flavus [17]; [36])
16 µg/mL: MIC (Candida albicans [1]) | MFC (Saccharomyces cerevisiae [8]) | MIC (Saccharomyces cerevisiae [8]) | MIC [11] | MIC (Cryptococcus neoformans [12])
2.13: FICI (FLC:INH) (Aspergillus fumigatus [5]; [25])
1: INH FD (MIC-MICc fold decrease) ([2]; FLC:INH combination) | INH FD (MIC-MICc fold decrease) ([2]; ITR:INH combination) | FLC FD (MIC-MICc fold decrease) (Candida albicans [7]; [20]) | FLC FD (MIC-MICc fold decrease) (Candida glabrata [9]; [20]) | INH FD (MIC-MICc fold decrease) (Candida glabrata [9]; FLC:INH combination) | ITR FD (MIC-MICc fold decrease) (Candida glabrata [9]; [22]) | INH FD (MIC-MICc fold decrease) (Candida glabrata [9]; KET:INH combination) | INH FD (ITR:INH) (Saccharomyces cerevisiae [10]; [35]) | INH FD (KET:INH) (Saccharomyces cerevisiae [10]; [36]) | ITR FD (ITR:INH) (Aspergillus flavus [17]; [32])
1.5: FICI ([2]; ITR:INH combination) | FICI (Candida albicans [7]; FLC:INH combination) | FICI (ITR:INH) (Aspergillus flavus [17]; [26])
1.25: FICI ([2]; FLC:INH combination)
2.25: FICI (KET:INH) (Aspergillus fumigatus [5]; [27])
